Results: patent publication US9394268B2, “(E)-1-(5-methoxy-2,2-dimethyl-2H-chromen-8-yl)-3-(4-methoxyphenyl)prop-2-en-1-one and analogs thereof, as well as preparation method and use thereof” (Sichuan University, priority 2012, dated 2016)
pIC50: −log10 of the molar value.

Experiments:
Assay type in all cases: cell-based
HepG2 = assay: Cell proliferative assay (MTT), HepG2; conditions: Homo sapiens, 72 h incubation, read-out: IC50s HepG2
Procedure: (§1) The synthesized compounds were evaluated for their cytotoxin activity against suspended tumor cells. These cells were seeded on 96-well plates and incubated for 24 h. Selected compounds were added at various doses and incubated for 72 h, MTT was then added, and the absorbance was measured at a wavelength of 590 nm. IC50 values are expressed as the mean±SEM from the dose-response curves of at least three independent experiments.

SW620 = assay: Cell proliferative assay (MTT), SW620; conditions: Homo sapiens, SW-620, 72 h incubation, read-out: IC50s SW620
Procedure: as §1

HT29 = assay: Cell proliferative assay (MTT), HT29; conditions: Homo sapiens, HT-29, 72 h incubation, read-out: IC50s HT29
Procedure: as §1

K562 = assay: Cell proliferative assay (MTT), K562; conditions: Homo sapiens, 72 h incubation, read-out: IC50s K562
Procedure: as §1

HCT116 = assay: Cell proliferative assay (MTT), HCT116; conditions: Homo sapiens, HCT-116, 72 h incubation, read-out: IC50s HCT116
Procedure: as §1

A549 = assay: Cell proliferative assay (MTT), A549; conditions: Homo sapiens, 72 h incubation, read-out: IC50s A549
Procedure: as §1

A375 = assay: Cell proliferative assay (MTT), A375; conditions: Homo sapiens, A-375, 72 h incubation, read-out: IC50s A375
Procedure: as §1

SMMC-7221 = assay: Cell proliferative assay (MTT), SMMC-7221; conditions: 72 h incubation, read-out: IC50s SMMC-7221
Procedure: as §1

LO2 = assay: Cell proliferative assay (MTT), LO2; conditions: Homo sapiens, L02, 72 h incubation, read-out: IC50s LO2
Procedure: as §1

Row | Structure (SMILES) | pIC50 (HepG2) | pIC50 (SW620) | pIC50 (HT29) | pIC50 (K562) | pIC50 (HCT116) | pIC50 (A549) | pIC50 (A375) | pIC50 (SMMC-7221) | pIC50 (LO2)
1 | COc1ccc(C(=O)/C=C/c2cc(OC)c(OC)c(OC)c2)c2c1C=CC(C)(C)O2 [SKLBC-3, (E)-1-(5-methoxy-2,2-dimethyl-2H-chromen-8-yl)-3-(3,4,5-trimethoxyphenyl)prop-2-en-1-one] | < 5.00 | 5.04 | < 5.00 | < 5.00 | 5.12 | – | – | – | –
2 | COc1cc(OC)c(OC)cc1/C=C/C(=O)c1ccc(OC)c2c1OC(C)(C)C=C2 [SKLBC-5, (E)-1-(5-methoxy-2,2-dimethyl-2H-chromen-8-yl)-3-(2,4,5-trimethoxyphenyl)prop-2-en-1-one] | < 5.00 | < 5.00 | < 5.00 | < 5.00 | < 5.00 | – | – | – | –
3 | COc1ccc(C(=O)/C=C/c2ccc(F)cc2)c2c1C=CC(C)(C)O2 [SKLBC-6, (E)-3-(4-fluorophenyl)-1-(5-methoxy-2,2-dimethyl-2H-chromen-8-yl)prop-2-en-1-one] | < 5.00 | < 5.00 | < 5.00 | < 5.00 | < 5.00 | – | – | – | –
4 | COc1ccc(C(=O)/C=C/c2cccc(F)c2)c2c1C=CC(C)(C)O2 [SKLBC-7, (E)-3-(3-fluorophenyl)-1-(5-methoxy-2,2-dimethyl-2H-chromen-8-yl)prop-2-en-1-one] | < 5.00 | < 5.00 | < 5.00 | < 5.00 | 5.72 | – | – | – | –
5 | COc1ccc(C(=O)/C=C/c2ccc(Br)cc2)c2c1C=CC(C)(C)O2 [SKLBC-8, (E)-3-(4-bromophenyl)-1-(5-methoxy-2,2-dimethyl-2H-chromen-8-yl)prop-2-en-1-one] | < 5.00 | < 5.00 | < 5.00 | < 5.00 | 5.24 | – | – | – | –
6 | COc1ccc(C(=O)/C=C/c2ccc(-c3ccccc3)cc2)c2c1C=CC(C)(C)O2 [SKLBC-11, (E)-3-([1,1′-biphenyl]-4-yl)-1-(5-methoxy-2,2-dimethyl-2H-chromen-8-yl)prop-2-en-1-one] | < 5.00 | < 5.00 | < 5.00 | < 5.00 | < 5.00 | – | – | – | –
7 | COc1ccc(C(=O)/C=C/c2ccc(N(c3ccccc3)c3ccccc3)cc2)c2c1C=CC(C)(C)O2 [SKLBC-13, (E)-3-(4-(diphenylamino)phenyl)-1-(5-methoxy-2,2-dimethyl-2H-chromen-8-yl)prop-2-en-1-one] | < 5.00 | < 5.00 | < 5.00 | < 5.00 | 5.34 | – | – | – | –
8 | CCN(CC)c1cc(/C=C/C(=O)c2ccc(OC)c3c2OC(C)(C)C=C3)ccc1OC [SKLBC-86, (E)-3-(3-(diethylamino)-4-methoxyphenyl)-1-(5-methoxy-2,2-dimethyl-2H-chromen-8-yl)prop-2-en-1-one] | < 5.00 | – | – | < 5.00 | – | < 5.00 | < 5.00 | < 5.00 | < 4.70
9 | COc1ccc(/C=C/C(=O)c2ccc(OC)c3c2OC(C)(C)C=C3)cc1N(CC=C(C)C)CC=C(C)C [SKLBC-88, (E)-3-(3-(bis(3-methylbut-2-en-1-yl)amino)-4-methoxyphenyl)-1-(5-methoxy-2,2-dimethyl-2H-chromen-8-yl)prop-2-en-1-one] | < 5.00 | – | – | 5.12 | – | < 5.00 | < 5.00 | < 5.00 | 5.01
10 | COc1ccc(/C=C/C(=O)c2ccc(OC)c3c2OC(C)(C)C=C3)cc1NCCN1CCOCC1 [SKLBC-89, (E)-1-(5-methoxy-2,2-dimethyl-2H-chromen-8-yl)-3-(4-methoxy-3-((2-morpholinoethyl)amino)phenyl)prop-2-en-1-one] | 7.30 | – | – | 7.03 | – | 6.67 | 6.67 | 6.61 | 5.58
11 | COc1ccc(/C=C/C(=O)c2ccc(OC)c3c2OC(C)(C)C=C3)cc1N(Cc1ccccc1)Cc1ccccc1 [SKLBC-91, (E)-3-(3-(dibenzylamino)-4-methoxyphenyl)-1-(5-methoxy-2,2-dimethyl-2H-chromen-8-yl)prop-2-en-1-one] | < 5.00 | – | – | 6.24 | – | < 5.00 | < 5.00 | < 5.00 | < 5.00

Second part, led by results:

Row | pIC50 (HepG2) | pIC50 (SW620) | pIC50 (HT29) | pIC50 (K562) | pIC50 (HCT116) | pIC50 (A549) | pIC50 (A375) | pIC50 (SMMC-7221) | Structure (SMILES) | pIC50 (LO2)
12 | < 5.00 | < 5.00 | < 5.00 | < 5.00 | < 5.00 | – | – | – | COc1cccc(/C=C/C(=O)c2ccc(OC)c3c2OC(C)(C)C=C3)c1 [SKLBC-2, (E)-1-(5-methoxy-2,2-dimethyl-2H-chromen-8-yl)-3-(3-methoxyphenyl)prop-2-en-1-one] | –
13 | < 5.00 | – | – | < 5.00 | – | < 5.00 | < 5.00 | < 5.00 | C#CCNc1cc(/C=C/C(=O)c2ccc(OC)c3c2OC(C)(C)C=C3)ccc1OC [SKLBC-87, (E)-1-(5-methoxy-2,2-dimethyl-2H-chromen-8-yl)-3-(4-methoxy-3-(prop-2-yn-1-ylamino)phenyl)prop-2-en-1-one] | < 4.70
14 | 5.55 | – | – | 5.46 | – | 5.30 | 5.67 | 5.65 | COc1ccc(/C=C/C(=O)c2ccc(OC)c3c2OC(C)(C)C=C3)cc1NC(C)=O [SKLBC-92, (E)-N-(2-methoxy-5-(3-(5-methoxy-2,2-dimethyl-2H-chromen-8-yl)-3-oxoprop-1-en-1-yl)phenyl)acetamide] | < 5.00
15 | < 5.00 | – | – | < 5.00 | – | < 5.00 | < 5.00 | < 5.00 | C=CC(=O)Nc1cc(/C=C/C(=O)c2ccc(OC)c3c2OC(C)(C)C=C3)ccc1OC [SKLBC-94, (E)-N-(2-methoxy-5-(3-(5-methoxy-2,2-dimethyl-2H-chromen-8-yl)-3-oxoprop-1-en-1-yl)phenyl)acrylamide] | < 4.70
16 | < 5.00 | – | – | < 5.00 | – | < 5.00 | < 5.00 | < 5.00 | CCCCC(=O)Nc1cc(/C=C/C(=O)c2ccc(OC)c3c2OC(C)(C)C=C3)ccc1OC [SKLBC-95, (E)-N-(2-methoxy-5-(3-(5-methoxy-2,2-dimethyl-2H-chromen-8-yl)-3-oxoprop-1-en-1-yl)phenyl)pentanamide] | < 4.70
17 | < 5.00 | – | – | < 5.00 | – | < 5.00 | < 5.00 | < 5.00 | COc1ccc(/C=C/C(=O)c2ccc(OC)c3c2OC(C)(C)C=C3)cc1NC(=O)C(C)C [SKLBC-96, (E)-N-(2-methoxy-5-(3-(5-methoxy-2,2-dimethyl-2H-chromen-8-yl)-3-oxoprop-1-en-1-yl)phenyl)isobutyramide] | < 4.70
18 | < 5.00 | – | – | < 5.00 | – | < 5.00 | < 5.00 | < 5.00 | COc1ccc(/C=C/C(=O)c2ccc(OC)c3c2OC(C)(C)C=C3)cc1NC(=O)Cc1cccc(C(F)(F)F)c1 [SKLBC-97, (E)-N-(2-methoxy-5-(3-(5-methoxy-2,2-dimethyl-2H-chromen-8-yl)-3-oxoprop-1-en-1-yl)phenyl)-2-(3-(trifluoromethyl)phenyl)acetamide] | < 5.00
19 | 5.44 | – | – | 5.11 | – | 5.07 | 5.62 | 5.04 | COc1ccc(/C=C/C(=O)c2ccc(OC)c3c2OC(C)(C)C=C3)cc1NC(N)=O [SKLBC-98, (E)-1-(2-methoxy-5-(3-(5-methoxy-2,2-dimethyl-2H-chromen-8-yl)-3-oxoprop-1-en-1-yl)phenyl)urea] | < 5.00
20 | 5.00 | – | – | 5.05 | – | < 5.00 | 5.05 | 5.25 | COc1ccc(/C=C/C(=O)c2ccc(OC)c3c2OC(C)(C)C=C3)cc1NS(C)(=O)=O [SKLBC-99, (E)-N-(2-methoxy-5-(3-(5-methoxy-2,2-dimethyl-2H-chromen-8-yl)-3-oxoprop-1-en-1-yl)phenyl)methanesulfonamide] | 5.01
21 | < 5.00 | – | – | < 5.00 | – | < 5.00 | < 5.00 | < 5.00 | COc1ccc(/C=C/C(=O)c2ccc(OC)c3c2OC(C)(C)C=C3)cc1NS(=O)(=O)C1CC1 [SKLBC-100, (E)-N-(2-methoxy-5-(3-(5-methoxy-2,2-dimethyl-2H-chromen-8-yl)-3-oxoprop-1-en-1-yl)phenyl)cyclopropanesulfonamide] | < 4.70
22 | < 5.00 | – | – | < 5.00 | – | < 5.00 | < 5.00 | 5.17 | COc1ccc(/C=C/C(=O)c2ccc(OC)c3c2OC(C)(C)C=C3)cc1NS(=O)(=O)c1ccc(C)cc1 [SKLBC-101, (E)-N-(2-methoxy-5-(3-(5-methoxy-2,2-dimethyl-2H-chromen-8-yl)-3-oxoprop-1-en-1-yl)phenyl)-4-methylbenzenesulfonamide] | < 5.00
23 | < 5.00 | – | – | < 5.00 | – | < 5.00 | < 5.00 | < 5.00 | COc1ccc(/C=C/C(=O)c2ccc(OC)c3c2OC(C)(C)C=C3)cc1NS(=O)(=O)Cc1ccccc1 [SKLBC-102, (E)-N-(2-methoxy-5-(3-(5-methoxy-2,2-dimethyl-2H-chromen-8-yl)-3-oxoprop-1-en-1-yl)phenyl)-1-phenylmethanesulfonamide] | < 4.70
